Assay results: PMC5514153, “Targeting PTPRZ inhibits stem cell-like properties and tumorigenicity in glioblastoma cells” (Scientific Reports, 2017)

What was measured:
[1] = tested on: paxillin at Tyr-118 in C6 cells; assay: Paxillin Tyr-118 phosphorylation in C6 cells (Western blot); type: cell-based, rat; conditions: 25 µM
Method: Figure 7 Cellular effects of NAZ2329 on the malignant phenotypes of C6 cells. (A) Phosphorylation of paxillin at Tyr-118. C6 cells were incubated with NAZ2329 for the indicated periods. Immunoprecipitated paxillin was analyzed by Western blotting using anti-pY118-paxillin and anti-paxillin. Blots are representative of five independent cultures. […] (B) Cell proliferation assay. C6 cells were incubated for 48 h with NAZ2329 in normal medium containing 2% FBS. […] (C) Boyden chamber assay. Cells were allowed to migrate for 3 h. DAPI-stained nuclei are shown before (total) and after (migrated) the removal of cells remaining in the top chamber. Scale bars, 100 µm. […] (D,E) Sphere formation (D) and SOX2 expression (E). C6 cells were cultured in CSC medium for 7 days with indicated concentrations of NAZ2329. Images are representative of five independent cultures. Scale bars, 100 µm. […] (F) Self-renewal of C6 spheres. […]
After precleaning the extracts with Protein G Sepharose (#17-0618-02, GE Healthcare), samples were subjected to immunoprecipitation with Protein G Sepharose coated with a mouse anti-paxillin antibody. […] The binding of these antibodies was detected with Luminata Forte Western HRP substrate (Millipore) and imaged with a chemiluminescent image analyzer system (EZ-Caputure MG, Atto Corp).

hPTPRG = molecular target: T1, hPTPRG (Homo sapiens, UniProt P23470); assay: In vitro PTPase assay (DiFMUP), PTPRG; type: biochemical; conditions: 60-min preincubation
T1 construct: The ICRs of PTPRG, PTPRS, and PTPRB and the catalytic domains of PTPN1 and PTPN6; GST (N); made in house; host or cells: Escherichia coli BL21
Method: Figure 4 NAZ2329, an allosteric inhibitor of R5 RPTP subfamily members. (A) Structure of NAZ2329. (B) Effect of preincubation of NAZ2329 on its inhibitory activity against PTPRZ. Recombinant human PTPRZ1 enzyme (the whole intracellular region) was premixed with NAZ2329 for the indicated times and followed by addition of a fluorogenic DiFMUP (non-specific PTP substrate, 6,8-difluoro-4-methylumbiliferyl phosphate) to measure PTP inhibitory activity. (C) Time dependence. The PTPRZ1 enzyme was added to the inhibitor–substrate mixture, and the inhibitory activity was determined at each time point relative to the vehicle control. (D) Reversibility of inhibition. […] The mixture was then 20-fold diluted, and recovered PTP activity was expressed as the relative activity compared with the vehicle-treated enzyme. […] PTPRZ1 enzymes were preincubated with NAZ2329 for 60 min, and the PTP activity was measured using DiFMUP. […]
Recombinant proteins corresponding to the entire intracellular regions (ICRs) of PTPRZ1, PTPRA, and PTPRM were expressed using a baculovirus-silkworm expression system, and purified as described. The ICRs of PTPRG, PTPRS, and PTPRB and the catalytic domains of PTPN1 and PTPN6 were expressed as glutathione-S-transferase (GST) fusion proteins from each pGEX plasmid in Escherichia coli strain BL21 (ref. [6]). […]

T1 sequence (P23470 763-1445 limits assumed): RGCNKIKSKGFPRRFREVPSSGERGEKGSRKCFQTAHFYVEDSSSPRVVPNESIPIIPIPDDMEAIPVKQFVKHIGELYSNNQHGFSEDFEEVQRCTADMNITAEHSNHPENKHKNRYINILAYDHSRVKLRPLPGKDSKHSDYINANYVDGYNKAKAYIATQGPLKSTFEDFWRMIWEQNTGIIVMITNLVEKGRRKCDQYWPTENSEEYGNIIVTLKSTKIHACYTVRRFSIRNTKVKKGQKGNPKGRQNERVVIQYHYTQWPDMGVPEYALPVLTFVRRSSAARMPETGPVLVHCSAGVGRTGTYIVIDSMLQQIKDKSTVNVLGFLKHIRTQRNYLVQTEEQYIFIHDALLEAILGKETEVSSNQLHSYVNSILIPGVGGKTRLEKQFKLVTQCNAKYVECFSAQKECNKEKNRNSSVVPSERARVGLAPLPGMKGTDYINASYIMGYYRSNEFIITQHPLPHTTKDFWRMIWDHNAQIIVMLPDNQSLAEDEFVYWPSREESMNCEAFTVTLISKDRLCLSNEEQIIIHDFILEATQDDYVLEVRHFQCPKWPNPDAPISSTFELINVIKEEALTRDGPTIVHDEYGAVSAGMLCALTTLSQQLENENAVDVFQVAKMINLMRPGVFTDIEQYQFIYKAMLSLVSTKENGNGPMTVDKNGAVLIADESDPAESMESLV

- IC50 (hPTPRG): 4.8 µM
Structure (SMILES): CCOc1ccc(C(F)(F)F)cc1CSc1ccsc1C(=O)NS(=O)(=O)c1ccccc1 [NAZ2329]
- phosphorylation level of paxillin at Tyr-118 [1]: significantly enhanced the phosphorylation level
